In data set [1] the test system is MIA PaCa2 cells. The experiment in a line: Cell viability / cytotoxic effect in MIA PaCa2 cells (EZ-CYTOX/MTT). In kind it is cell-based. The settings on record: Homo sapiens, MIA PaCa-2, 2.5-40 µM, 24 h, relative IC50. On the procedure:
The human pancreatic ductal epithelial cell lines MIA Paca2, PANC-1 were maintained in DMEM media with 10% fetal bovine serum (FBS), 100 U/mL penicillin, and 100 µg/mL streptomycin at 37 °C in a humidified 5% CO2/95% air atmosphere. Cells were seeded in 96-well plates at a density of 3000 cells/100 μL/well and incubated for 24 h. The cells were then incubated in a culture medium containing synthetic compounds. Following 24 h of incubation, the cell viability was determined using an EZ-CYTOX kit (DaeilLab Service, Seoul, Korea) according to the manufacturer’s protocol (n = 12).
Supplementary Figure 1. Relative IC50 determination of Compound 5, Compound 10, PF-543, and FTY720. MIAPaCa2 cells were seeded in 96 well plates and treated with 2.5-40 µ M of compounds for 24h. Cell viability was assessed using MTT assay, and Relative IC50 was determined using Graph pad prism software. The result is representative of three independent experiments and data are presented as mean ± SD. *** p < 0.001 compared with non-treated […]
(1 picture or pasted object on this page, not shown here)

In another data set the test system is SK2. On the set-up: method as in PMID 30889352. The settings on record: cited from earlier work.
For a further data set, the system named is SK1. Details: method as in PMID 30889352. Particulars: cited from earlier work.
A short description of data set [2]: In vitro metabolic stability in mouse liver microsomes. In kind it is in vitro ADME. The settings on record: NADPH, 30 min. In general terms: Liver microsomes are a subcellular fraction often used to study metabolism.
The test system of a further data set is PP2A. As to the kind of experiment: PP2A immunoprecipitation phosphatase activity assay in MIA PaCa2 cells. In kind it is cell-based, human. The settings on record: 20 µM. On the procedure: PP2A activity assay was a PP2A immunoprecipitation phosphatase assay kit operated according to the manufacturer’s instruction. Briefly, a prepared protein aliquot was incubated with anti-PP2A subunit C-antibody and protein A agarose slurry at 4 °C for 2–3 h, and then phosphopeptide was added. Samples were recorded by Thermo Scientific Multiskan GO.

In a further data set the target is T1, SPHK1 (Homo sapiens, UniProt Q9NYA1).
T1 construct: purchased Thermo Fisher Scientific
T1 sequence (Q9NYA1 whole entry): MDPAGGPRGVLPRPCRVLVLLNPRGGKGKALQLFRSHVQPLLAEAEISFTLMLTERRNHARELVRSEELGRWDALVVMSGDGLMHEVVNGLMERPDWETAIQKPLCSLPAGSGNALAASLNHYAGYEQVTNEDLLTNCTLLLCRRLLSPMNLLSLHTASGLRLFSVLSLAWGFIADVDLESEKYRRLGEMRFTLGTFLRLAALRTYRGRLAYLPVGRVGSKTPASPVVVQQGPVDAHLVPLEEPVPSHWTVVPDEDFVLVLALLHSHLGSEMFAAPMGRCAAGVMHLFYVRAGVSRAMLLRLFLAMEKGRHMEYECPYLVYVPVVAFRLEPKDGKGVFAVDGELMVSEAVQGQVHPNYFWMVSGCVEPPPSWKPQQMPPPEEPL
As to the kind of experiment: Sphingosine kinase 1 activity assay (Adapta screening system). In kind it is biochemical. Particulars: 20 µM compound. On the procedure:
(§1) SK 1/2 activity was measured using 20 μM PF-543 and compounds 1–10 using the AdaptaTM screening system (Thermo Fisher Scientific system). Sphingosine kinase 1 activity assay used 0.04–0.16 ng SPHK1, 50 μM sphingosine lipid substrate in 32.5 mM HEPES pH 7.5, 0.005% BRIJ 35, 5 mM MgCl2, 0.5 mM EGTA. Sphingosine kinase 2 activity assay detected 35–140 ng SPHK2, 50 μM sphingosine lipid substrate in 32.5 mM HEPES pH 7.5, 0.5 mM EGTA, and 1.5 mM MgCl2.

For data set [3], the system named is MIA PaCa2 cells. As to the kind of experiment: Annexin-V apoptosis assay (flow cytometry). In kind it is cell-based, human. Particulars: 20 µM. On the procedure: Cell apoptosis assay was determined using annexin V- FITC and propidium iodide (PI) staining, as described in manufacturer instruction (BioBud, Gyeonggi-do, Korea). Briefly, the cells were resuspended in binding buffer and then incubated with annexin-V-FITC and propidium iodide at room temperature. After incubation, stained cells were analyzed by MACSQuant Analyzer 10 Flow Cytometer (Miltenyi Biotec, Bergisch Gladbach, Germany). The experiment was conducted three times independently (n = 6).
(In flow cytometry, cells or beads pass a laser one at a time.)

Data set [4] can be described thus: In vitro metabolic stability in rat liver microsomes. Particulars: NADPH, 30 min. In kind it is in vitro ADME.
The subject of data set [5] is MIA PaCa2 cells. The experiment in a line: Mitochondrial membrane potential, JC-10 staining. In kind it is cell-based, human. Particulars: 20 µM. On the procedure: To measure the degree of MMP change of cancer cells, 20 μM JC-10 dye and assay buffer (Enzo Co., New York, NY, USA) were added to the cells cultured for 24 h and mixed until the cells were completely dissolved. Subsequently, the cells were incubated in the dark for 30 min at room temperature. The solutions were protected from light and analyzed by using flow cytometry.

Data set [6] in a line: In vitro metabolic stability in human liver microsomes. The settings on record: human liver microsomes 0.5 mg/mL, NADPH, 30 min.
Protocol: Microsomal incubations were conducted in triplicate in 0.1 M potassium phosphate buffer (pH 7.4) in a clean 1.5 mL Eppendorf tube. […] The final incubation mixtures contained 0.5 mg/mL HLM, 0.1 M potassium phosphate buffer (pH 7.4), NADPH regenerating system (1 mM NADPH, 10 mM MgCl2). HLM was added, and the mixture was pre-incubated at 37 °C in a shaking incubator at approximately 350 rpm for 5 min under a Thermo mixer (Eppendorf., Hamburg, Germany). Reactions were initiated by the addition of 1 mM NADPH and were then quenched by adding 40 µL of ice-cold acetonitrile containing 10 µM chlorpropamide (CPP) as an internal standard at 0 and 30 min. The incubation mixtures were then centrifuged at 15,000 g for 5 min at 4 °C. A 2 µL aliquot of the supernatant was directly injected into the LC-MS/MS system. The LC-MS/MS system consisted of the Nexera XR HPLC system (Shimadzu Co., Kyoto, Japan) coupled to the TSQ Vantage triple quadrupole mass spectrometer equipped with Xcalibur version 1.1.1 (Thermo Fisher Scientific Inc., Waltham, MA, USA).
Data set [7] concerns MIA PaCa2 cells. The experiment in a line: Ceramide, S1P and sphingosine levels by ELISA in MIA PaCa2 cells. The settings on record: 20 µM. In kind it is cell-based, human. On the procedure: Ceramide, sphingosine, and S1P level were performed as protocols recommended by Mybiosource using the ceramide, sphingosine, and S1P ELISA kit (MyBiosource Inc., San Diego, CA, USA). Ceramide and sphingosine S1P measurements were tested with proteins that were centrifuged and collected by repeating freezing and thawing from three to five times after adding PBS to cells.
Background: An ELISA detects its analyte on a solid surface through an enzyme-linked reagent.

In a further data set the target is T2, SPHK2 (Homo sapiens, UniProt Q9NRA0).
T2 construct: purchased Thermo Fisher Scientific
T2 sequence (Q9NRA0 1-654): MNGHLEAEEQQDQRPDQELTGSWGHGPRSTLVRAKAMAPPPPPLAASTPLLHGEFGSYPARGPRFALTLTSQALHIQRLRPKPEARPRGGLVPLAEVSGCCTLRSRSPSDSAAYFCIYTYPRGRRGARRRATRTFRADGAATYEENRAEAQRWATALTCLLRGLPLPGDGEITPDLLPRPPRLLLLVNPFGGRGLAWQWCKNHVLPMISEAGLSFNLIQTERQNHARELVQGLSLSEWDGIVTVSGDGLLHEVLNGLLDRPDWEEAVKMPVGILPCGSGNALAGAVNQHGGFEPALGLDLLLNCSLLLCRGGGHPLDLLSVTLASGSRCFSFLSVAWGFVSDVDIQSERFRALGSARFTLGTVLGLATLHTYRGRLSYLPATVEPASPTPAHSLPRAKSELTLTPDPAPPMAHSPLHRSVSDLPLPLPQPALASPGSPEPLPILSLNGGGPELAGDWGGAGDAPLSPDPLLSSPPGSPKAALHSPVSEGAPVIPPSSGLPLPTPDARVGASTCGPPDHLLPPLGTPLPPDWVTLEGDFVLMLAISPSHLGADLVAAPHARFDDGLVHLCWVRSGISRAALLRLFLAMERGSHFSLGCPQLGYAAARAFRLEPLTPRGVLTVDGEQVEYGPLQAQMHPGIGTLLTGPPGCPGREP
As to the kind of experiment: Sphingosine kinase 2 activity assay (Adapta screening system). In kind it is biochemical. The settings on record: 20 µM compound. On the procedure: as §1

A short description of data set [8]: In vitro metabolic stability in dog liver microsomes. In kind it is in vitro ADME. Particulars: NADPH, 30 min.
Data set [9] concerns MIA PaCa2 cells. The experiment in a line: Western blot of apoptosis-related proteins. In kind it is cell-based, human. Particulars: 20 µM, 24 h. On the procedure: Cell extracts from MIA Paca2 cells were determined by BCA Protein Assay Kit (Thermo Scientific) according to the manufacturer’s instructions. Separate 20–30 μg protein by electrophoresis using Tris-Glycine gel and transfer to PVDF membranes. After transferring and blocking, the membrane was incubated with the primary antibody in TBS-T buffer containing 5% skim milk overnight at 4 °C. Then, the membrane was washed three times with TBS-T, and the secondary antibody was incubated. Chemiluminescence detection was performed using a Western blot detection kit (Milipore). Bax, Bcl-2, Caspase-3, PARP, AKT, p-AKT, ERK, and p-ERK were used for Western blot analysis. Internal controls were detected using Actin antibody.

One may read the IC50 as the midpoint of a concentration-inhibition curve. As for `CCCCCCCCc1ccc(CCC(N)(CO)CO)cc1` [FTY720, reference compound], in the data set with MIA PaCa2 cells [1], it took 9.57 µM to reach half-maximal inhibition (IC50).

With `OC[C@H]1CCCN1Cc1ccc(COc2cccc(OCc3ccc(Cl)cc3)c2)cc1` [compound 55], the figures for the IC50 in the data set with SK2 and in the data set with SK1 were 0.041 µM and 4.13 µM, respectively.

On to `CCCCCCCCc1cn(Cc2cc(C)cc(OCc3ccc(CN4CCC(CO)CC4)cc3)c2)nn1` [Compound 10, (1-(4-((3-Methyl-5-((4-octyl-1H-1,2,3-triazol-1-yl)methyl)phenoxy)methyl)benzyl)piperidin-4-yl)methanol], for which the “In vitro stability, Mouse (%)” value in data set [2] is 33.3%. Further, the PP2A activity entry in the data set on PP2A is reported as “activated PP2A”. Besides, the SK1-inhibitory effect result on SPHK1 was “inhibited both SK1 and SK2”. Moreover, the “apoptotic effect (annexin-V)” value in the data set on MIA PaCa2 cells [3] is “high apoptotic effect”. In addition, the “In vitro stability, Rat (%)” value in data set [4] was 53.3%. In addition, in the data set with MIA PaCa2 cells [5], the “mitochondrial membrane potential (ratio of red to green fluorescence, JC-10)” value is listed as “significantly reduced the mitochondrial membrane potential”. In [6], the “In vitro stability, Human (%)” value was found to be 66.7%. In addition, in the data set on MIA PaCa2 cells [7], the S1P level entry is “reduced the levels of S1P and sphingosine”; the ceramide level entry is “the ceramide level increased”; the sphingosine level result was “reduced the levels of S1P and sphingosine”. In the data set on MIA PaCa2 cells [1], this compound registered an IC50 of 11.1 µM. Further, the SK2-inhibitory effect entry at SPHK2 is “inhibited both SK1 and SK2”. For the same compound, in data set [8], the “In vitro stability, Dog (%)” value is listed as 58.3%. For the same compound, in the data set with MIA PaCa2 cells [9], the “expression of anti-apoptotic protein Bcl-2” value is listed as “Bcl-2 decreased”; the “expression of pro-apoptotic proteins (cleaved PARP, cleaved caspase-3)” value is “cleaved form of PARP and caspase-3 increased”.

`Cc1cc(Cn2cc(-c3ccccc3)nn2)cc(OCc2ccc(CN3CCC(CO)CC3)cc2)c1` [Compound 5, (1-(4-((3-Methyl-5-((4-phenyl-1H-1,2,3-triazol-1-yl)methyl)phenoxy)methyl)benzyl)piperidin-4-yl)methanol]: the “In vitro stability, Mouse (%)” value in data set [2] worked out at 17.9%. In addition, the PP2A activity entry with PP2A is recorded as “little effect on PP2A”. In addition, the “In vitro stability, Rat (%)” value in [4] is 27.6%. In addition, the “mitochondrial membrane potential (ratio of red to green fluorescence, JC-10)” value with MIA PaCa2 cells [5] is given as “significantly reduced the mitochondrial membrane potential”. In addition, the “In vitro stability, Human (%)” value in data set [6] is recorded as 45.4%. Also, in the data set with MIA PaCa2 cells [7], the S1P level entry was “increased the S1P level”. The compound further displayed an IC50 in the data set on MIA PaCa2 cells [1] of 26.1 µM. In addition, in data set [8], the “In vitro stability, Dog (%)” value was 40.8%. Also, in the data set on MIA PaCa2 cells [9], the “expression of pro-apoptotic proteins (cleaved PARP, cleaved caspase-3)” value was “insignificant compared to the compound 10 treatment group”.

`Cc1cc(CS(=O)(=O)c2ccccc2)cc(OCc2ccc(CN3CCC[C@@H]3CO)cc2)c1` [PF-543]: the “In vitro stability, Mouse (%)” value in data set [2] is 7.5%. The PP2A activity result with PP2A is given as “also activated PP2A”. Further, the “In vitro stability, Rat (%)” value in [4] is 4.7%. Also, the “mitochondrial membrane potential (ratio of red to green fluorescence, JC-10)” value in the data set on MIA PaCa2 cells [5] is recorded as “significantly reduced the mitochondrial membrane potential”. Further, in the data set on MIA PaCa2 cells [7], the S1P level entry is “reduce the level of S1P”; the ceramide level entry is “did not significantly change the levels of ceramide and sphingosine”; the sphingosine level entry was “did not significantly change the levels of ceramide and sphingosine”. The “In vitro stability, Dog (%)” value in [8] turned out to be 2.9%.

The values are drawn from publication PMC9145885, “Synthesis of PP2A-Activating PF-543 Derivatives and Investigation of Their Inhibitory Effects on Pancreatic Cancer Cells” (Molecules, 2022).
